One assay addresses T1, thromboxane synthetase (Homo sapiens, UniProt P24557).
T1 construct: Indomethacin-pretreated human platelet microsomes; from tissue; host or cells: human platelet microsomes
T1 sequence (P24557 1-533): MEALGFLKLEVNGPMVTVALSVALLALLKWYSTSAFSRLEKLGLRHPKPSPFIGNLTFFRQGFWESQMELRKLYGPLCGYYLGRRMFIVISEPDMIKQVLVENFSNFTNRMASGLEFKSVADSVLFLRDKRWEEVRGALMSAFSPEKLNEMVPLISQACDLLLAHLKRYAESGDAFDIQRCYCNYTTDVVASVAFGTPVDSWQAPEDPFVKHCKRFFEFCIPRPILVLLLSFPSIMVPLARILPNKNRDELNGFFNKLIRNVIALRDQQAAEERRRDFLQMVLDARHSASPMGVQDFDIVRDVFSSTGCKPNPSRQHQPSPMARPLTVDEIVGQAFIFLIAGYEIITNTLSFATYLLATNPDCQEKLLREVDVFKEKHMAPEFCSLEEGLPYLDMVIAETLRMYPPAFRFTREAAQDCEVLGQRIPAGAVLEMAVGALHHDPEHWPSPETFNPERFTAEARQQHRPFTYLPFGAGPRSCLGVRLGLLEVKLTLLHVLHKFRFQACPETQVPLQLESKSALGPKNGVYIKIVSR
Kind of assay: Thromboxane A2 (TxA2) synthetase in vitro enzyme assay. In kind it is biochemical. The conditions noted are these: for IC50: indomethacin-pretreated human platelet microsomes, PGH2, 0° C., 2 min, 5 min pre-incubation, read-out: Concentration causing 50% inhibition of (1) thromboxane synthetase; for Ratio of (3) to (1): prostacyclin synthetase / thromboxane synthetase 50% inhibition concentrations. The procedure:
Indomethacin-pretreated human platelet microsomes (Science, 1976, 193, 163) are incubated with PGH2 (produced as described in test No. 1) at 0° C. for a period of two minutes, and aliquots of the reaction mixture are then superfused over two rabbit aorta spirals which are separated by a delay coil (2 min.). The latter is required in order to allow for the selective decay of the more unstable thromboxane A2 (Proc. Nat. Acad. Sci., 1975, 72, 2994), thereby enabling separate measurement of the increased isometric tension due to the TxA2 formed and the PGH2 remaining to take place. The test compound is then pre-incubated with the enzyme for a period of five minutes, and its ability to inhibit the thromboxane synthetase enzyme is measured as its reduction of the TxA2 component of the isometric tension.

The next assay deals with T2, cyclo-oxygenase (Ovis aries, UniProt P05979).
T2 construct: Ram seminal vesicle microsomes; from tissue; host or cells: ram seminal vesicle microsomes
T2 sequence (P05979 25-600): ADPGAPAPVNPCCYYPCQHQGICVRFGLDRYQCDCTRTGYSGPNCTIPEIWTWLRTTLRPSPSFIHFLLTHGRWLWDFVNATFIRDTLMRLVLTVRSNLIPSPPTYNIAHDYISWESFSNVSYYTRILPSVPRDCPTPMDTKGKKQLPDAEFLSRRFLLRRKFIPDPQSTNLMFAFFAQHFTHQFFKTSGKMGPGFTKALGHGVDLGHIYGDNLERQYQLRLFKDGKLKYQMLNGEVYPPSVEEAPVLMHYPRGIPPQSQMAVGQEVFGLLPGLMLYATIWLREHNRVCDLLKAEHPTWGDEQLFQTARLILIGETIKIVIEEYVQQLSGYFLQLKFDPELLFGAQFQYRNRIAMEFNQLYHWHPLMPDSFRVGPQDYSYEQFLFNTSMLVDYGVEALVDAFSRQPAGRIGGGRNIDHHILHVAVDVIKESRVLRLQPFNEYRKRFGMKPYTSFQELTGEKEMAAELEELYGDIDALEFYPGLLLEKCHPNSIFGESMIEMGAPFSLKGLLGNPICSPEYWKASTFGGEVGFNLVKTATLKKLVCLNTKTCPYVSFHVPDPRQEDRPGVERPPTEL
As to the kind of experiment: Cyclo-oxygenase in vitro enzyme assay. In kind it is biochemical. As to conditions: ram seminal vesicle microsomes, arachidonic acid 100 μM, 22° C., 1 min; 5 min pre-incubation; read-out: Concentration causing 50% inhibition of (2) cyclo-oxygenase. The procedure:
The effect of the compounds of the formula (I) on the thromboxane synthetase enzyme, and the prostacyclin synthetase and cyclo-oxygenase enzymes has been measured by the following in vitro enzyme assay tests:
Ram seminal vesicle microsomes (Biochemistry, 1971, 10, 2372) are incubated with arachidonic acid (100 μM) at 22° C. for a period of one minute so as to produce PGH2, and aliquots of this reaction mixture are then injected into a stream of Krebs-bicarbonate at 37° C. [containing a mixture of antagonists (Nature, […], 218, 1135) and indomethacin (Brit. J. Pharmacol., 1972, 45, 451)] which is superfusing a spirally-cut rabbit aorta strip (Nature, 1969, 223, 29). The ability of a compound to inhibit the enzyme is measured by comparing the increases in isometric tension produced by PGH2 in the absence of the test compound and again, following pre-incubation of the enzyme with the test compound for a period of five minutes.

Assay [1] deals with T3, prostacyclin synthetase (Sus scrofa, UniProt A0A5G2QT35).
T3 construct: Pig aorta microsomes; from tissue; host or cells: pig aorta microsomes
T3 sequence (A0A5G2QT35 1-497): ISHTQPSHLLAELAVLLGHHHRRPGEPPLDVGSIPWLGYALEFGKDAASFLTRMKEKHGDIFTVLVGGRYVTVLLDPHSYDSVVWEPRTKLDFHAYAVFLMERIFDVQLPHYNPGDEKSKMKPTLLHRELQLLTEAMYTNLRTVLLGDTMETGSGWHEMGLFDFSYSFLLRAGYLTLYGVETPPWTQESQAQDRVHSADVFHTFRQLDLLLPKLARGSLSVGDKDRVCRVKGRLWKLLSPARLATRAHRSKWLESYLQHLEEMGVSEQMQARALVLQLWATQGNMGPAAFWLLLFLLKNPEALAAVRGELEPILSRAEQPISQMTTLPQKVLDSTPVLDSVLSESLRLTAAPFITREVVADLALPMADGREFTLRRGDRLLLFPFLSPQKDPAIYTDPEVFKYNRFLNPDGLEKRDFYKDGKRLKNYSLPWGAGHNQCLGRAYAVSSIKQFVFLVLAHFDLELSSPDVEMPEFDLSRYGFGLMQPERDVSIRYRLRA
As to the kind of experiment: Prostacyclin (PGI2) synthetase in vitro enzyme assay. In kind it is biochemical. As to conditions: pig aorta microsomes, PGH2, 22° C., 30 seconds; 5 min pre-incubation; read-out: Concentration causing 50% inhibition of (3) prostacyclin synthetase.

A further assay relates to rabbit. As to conditions: intravenous arachidonic acid, rabbits; cited from earlier work.
Assay [2] concerns human blood platelet aggregation. As to conditions: variety of aggregating agents; cited from earlier work.
A further assay has as its system cyclo-oxygenase enzyme. As to conditions: in words; cited from earlier work.
In the next assay the test system is stroke and heart attack. The conditions noted are these: clinical evaluation; cited from earlier work.
Assay [3] has as its target T3, prostacyclin synthetase. As to conditions: pre-incubation of the enzyme with the selective PGI2 synthetase inhibitor; cited from earlier work.

For `COc1ccc2[nH]c(C)c(Cn3ccnc3)c2c1` [Example V, 3-(imidazol-1-ylmethyl)-5-methoxy-2-methylindole], the IC50 on thromboxane synthetase is 0.062 µM; at cyclo-oxygenase it was more than 100 µM; at prostacyclin synthetase [1] it was 4 µM. Moreover, on thromboxane synthetase, the “Ratio of (3) to (1)” value is 65.

Regarding `c1ccc2c(Cn3ccnc3)c[nH]c2c1` [*, 3-(imidazol-1-ylmethyl)-indole], the IC50 on thromboxane synthetase was 0.03 µM; at cyclo-oxygenase it was more than 1000 µM; at prostacyclin synthetase [1] it was 650 µM. Besides, at thromboxane synthetase, the “Ratio of (3) to (1)” value is listed as 22,000.

Turning to `CC(C)c1[nH]c2ccccc2c1Cn1ccnc1` [Example I, 3-(imidazol-1-ylmethyl)-2-isopropylindole], the IC50 is 0.017 µM on thromboxane synthetase, more than 100 µM on cyclo-oxygenase and more than 100 µM at prostacyclin synthetase [1]. Moreover, the “Ratio of (3) to (1)” value at thromboxane synthetase was > 6,000.

On to `COc1ccc2[nH]cc(Cn3ccnc3)c2c1` [IV, 3-(imidazol-1-ylmethyl)-5-methoxyindole], for which the IC50 was 0.2 µM at thromboxane synthetase, more than 100 µM on cyclo-oxygenase and 100 µM on prostacyclin synthetase [1]. Besides, on thromboxane synthetase, the “Ratio of (3) to (1)” value came to 500.

As to `Clc1ccccc1-c1[nH]c2ccccc2c1Cn1ccnc1` [Example XX, 2-(o-chlorophenyl)-3-(imidazol-1-ylmethyl)indole], the IC50 was 0.003 µM on thromboxane synthetase, more than 100 µM on cyclo-oxygenase and 40 µM on prostacyclin synthetase [1]. Also, on thromboxane synthetase, the “Ratio of (3) to (1)” value is 13,000.

For the compound `CC(C)(C)c1[nH]c2ccccc2c1Cn1ccnc1` [Example VI, 3-(imidazol-1-ylmethyl)-2-tert-butylindole], the IC50 on cyclo-oxygenase was more than 100 µM.

Turning to `Cn1cc(Cn2ccnc2)c2ccccc21` [XXVII, 3-(imidazol-1-ylmethyl)-1-methylindole], the IC50 at thromboxane synthetase was 0.002 µM; at cyclo-oxygenase, more than 100 µM; at prostacyclin synthetase [1], more than 100 µM. In addition, on thromboxane synthetase, the “Ratio of (3) to (1)” value is given as > 50,000.

With `CC(=O)Oc1ccccc1C(=O)O` [aspirin], the “protection from the lethal effect of arachidonic acid injection” value with rabbit is recorded as “protect the rabbit from the lethal effect of the injection”. Moreover, the “inhibitory activity in vitro against aggregating agents” value in assay [2] was “show inhibitory activity in vitro”. Besides, in the assay on cyclo-oxygenase enzyme, the “effect on prostacyclin and thromboxane A2 levels” value was “reduce both the prostacyclin and thromboxane A2 levels”; the “inhibition of the cyclo-oxygenase enzyme” value is “inhibit the cyclo-oxygenase enzyme”. Also, in the assay with stroke and heart attack, the “clinical results in prevention of stroke and heart attack” value is recorded as “some encouraging results”.

Regarding `Cc1[nH]c2ccccc2c1Cn1ccnc1` [II, 3-(imidazol-1-ylmethyl)-2-methylindole], the IC50 at thromboxane synthetase is 0.012 µM; at cyclo-oxygenase, more than 100 µM; on prostacyclin synthetase [1], 30 µM. For the same compound, the “Ratio of (3) to (1)” value at thromboxane synthetase is recorded as 2,500.

Regarding `O=C(c1ccccc1)n1cc(Cn2ccnc2)c2ccccc21` [Example XL, 1-benzoyl-3-(imidazol-1-ylmethyl)indole], the results for the IC50 on thromboxane synthetase, on cyclo-oxygenase and at prostacyclin synthetase [1] were 0.002 µM, more than 100 µM and 1.7 µM, respectively. Also, the “Ratio of (3) to (1)” value at thromboxane synthetase came to 850.

With `c1ccc2c(Cn3ccnc3)c(C3CCCCC3)[nH]c2c1` [XII, 2-cyclohexyl-3-(imidazol-1-ylmethyl)indole], the IC50 is 0.0003 µM at thromboxane synthetase, more than 100 µM at cyclo-oxygenase and 21 µM at prostacyclin synthetase [1]. The “Ratio of (3) to (1)” value on thromboxane synthetase is recorded as 70,000.

`Cl.c1ccc(Cn2cc(Cn3ccnc3)c3ccccc32)cc1` [Example XXVI, 1-benzyl-3-(imidazol-1-ylmethyl)indole hydrochloride]: the IC50 on thromboxane synthetase is 0.065 µM; on cyclo-oxygenase it was more than 100 µM; at prostacyclin synthetase [1], 1 µM. On thromboxane synthetase, the “Ratio of (3) to (1)” value was 15.

Take `Oc1ccc(-c2[nH]c3ccccc3c2Cn2ccnc2)cc1` [L, 2-(p-hydroxyphenyl)-3-(imidazol-1-ylmethyl)indole]: the results for the IC50 at thromboxane synthetase, on cyclo-oxygenase and on prostacyclin synthetase [1] were 0.0066 µM, more than 100 µM and 3 µM, respectively. For the same compound, the “Ratio of (3) to (1)” value on thromboxane synthetase stood at 450.

Turning to `Cc1cccc2c(Cn3ccnc3)c[nH]c12` [Example X, 3-(imidazol-1-ylmethyl)-7-methylindole], the IC50 at thromboxane synthetase was 0.0084 µM; at cyclo-oxygenase, more than 100 µM; at prostacyclin synthetase [1], more than 100 µM. Further, the “Ratio of (3) to (1)” value on thromboxane synthetase was > 12,000.

Consider `Brc1ccc2[nH]cc(Cn3ccnc3)c2c1` [IX, 5-bromo-3-(imidazol-1-ylmethyl)indole], for which the IC50 on thromboxane synthetase is 0.1 µM; on cyclo-oxygenase, more than 100 µM; at prostacyclin synthetase [1] it was 17 µM. The “Ratio of (3) to (1)” value on thromboxane synthetase was 170.

In the case of `Cc1ccc(-c2[nH]c3ccccc3c2Cn2ccnc2)cc1` [XVII, 3-(imidazol-1-ylmethyl)-2-(p-tolyl)indole], the IC50 is 0.00025 µM at thromboxane synthetase, more than 100 µM at cyclo-oxygenase and 2 µM on prostacyclin synthetase [1]. The “Ratio of (3) to (1)” value on thromboxane synthetase is recorded as 8,000.

Turning to `c1ccc2c(Cn3ccnc3)c(C3CC3)[nH]c2c1` [XIII, 2-cyclopropyl-3-(imidazol-1-ylmethyl)indole], the IC50 at thromboxane synthetase is 0.0001 µM; on cyclo-oxygenase, more than 100 µM; at prostacyclin synthetase [1], 0.84 µM. Further, the “Ratio of (3) to (1)” value on thromboxane synthetase is 8,400.

Consider `CCCCCC(/C=C/C=C\C/C=C\C/C=C\CCCC(=O)O)OO` (centres unmarked) [15-hydroperoxy-arachidonic acid], for which the “prevention of the decrease in PGH2-induced tension” value at prostacyclin synthetase [3] is reported as “prevented completely”.

As to `c1ccc(-c2[nH]c3ccccc3c2Cn2ccnc2)cc1` [III, 3-(imidazol-1-ylmethyl)-2-phenylindole], the IC50 is 0.01 µM on thromboxane synthetase, more than 100 µM on cyclo-oxygenase and 12 µM at prostacyclin synthetase [1]. Besides, the “Ratio of (3) to (1)” value on thromboxane synthetase was 1,200.

These data come from patent publication US4217357A, “Inhibition of thromboxane synthetase with 3-(imidazol-1-ylalkyl)indoles” (Pfizer Inc., priority 1978, dated 1980).
